Test results reported in patent US4467104A, “Esters of 2-(2-chlorocarbonyl)-2-(2,3-dihydro-2-alkylbenzofuran-7-yl)-hydrazinecar boxylic acid” (Shell Oil Company, priority 1982, dated 1984).

Assays:
Type in all cases: in vivo
[1] = system: Adult female two-spotted mites (Tetranychus urticae (Koch)); test: Two-spotted spider mite test on sprayed pinto bean leaves (about 20 hours); settings: concentration by weight in the formulation
Procedure: III. Adult female two-spotted mites (Tetranychus urticae (Koch) was tested by placing 50-75 mites on the bottom side of leaves of pinto bean plants. The leaves were sprayed with dilutions of an acetone solution of the test compound in water containing an emulsifier and kept under laboratory conditions for about 20 hours, at which time mortality counts were made. The tests were conducted employing several different dosage rates for each test compound.
(§1) In the case of each species of insect, the concentration of the test compound by weight in the formulation required to kill fifty percent of the test insects--i.e., the LC50 dosage--was determined.

[2] = system: Mosquito larvae (Anopheles albimanus (Weide)); test: Mosquito larvae test in water (mortality after 18-22 hours); settings: in distilled water
Procedure: IV. Mosquito larvae (Anopheles albimanus (Weide)) were tested by placing 10 living and active mosquito larvae in a jar containing a 0.1 ml aliquot of a 1% acetone solution of the test compound thoroughly mixed with 100 ml of distilled water. After 18-22 hours, mortality counts were taken. Both dead and moribund larvae were counted as dead. […] The tests were conducted employing several different dosage rates for each compound.
as §1

[3] = system: Houseflies (Musca domestica (Linne)); test: Housefly spray test (mortality after 18-20 hours); settings: concentration by weight in the formulation
Procedure: I. Houseflies (Musca domestica (Linne)) were tested by placing 50 4- to 5-day old housflies into a spray cage and spraying with 0.6 ml of a solution of test compound. After spraying, the flies were anesthetized with CO2 and transferred to a recovery cage containing a milk pad for food. The cages were held for 18-20 hours after which mortality counts were made. Both dead and moribund flies were counted. The tests were conducted employing several different dosage rates for each test compound.
as §1

[4] = system: Corn earworm larvae (Heliothis zea (Boddie)); test: Corn earworm larvae test on sprayed broad bean plant (44-46 hours); settings: concentration by weight in the formulation
Procedure: V. Corn earworm larvae (Heliothis zea (Boddie)) were tested by spraying a broad bean plant with dilutions of an acetone solution of the test compound in water containing an emulsifier. Immediately after spraying, 5 larvae were transferred to the plant and held for 44-46 hours, at which time the dead and moribund larvae were counted. The tests were conducted employing several different dosage rates for each test compound.
as §1

[5] = system: Pea aphids (Acyrthosiphon pisum (Harris)); test: Pea aphid test on sprayed broad bean plants (living aphids counted at 18 to 20 hours); settings: concentration by weight in the formulation
Procedure: II. Pea aphids (Acyrthosiphon pisum (Harris)) were tested by placing about 100 aphids on broad bean plants. The plants were sprayed with dilutions of an acetone solution of the test compound in water containing an emulsifier and held in containers under laboratory conditions for 18 to 20 hours, at which time the living aphids in the containers were counted. The tests were conducted employing several different dosage rates for each test compound.
as §1

| SMILES | LC50 Spider mite [1] [% w] | LC50 Mosquito Larvae [2] [ppm] | LC50 Housefly [3] [% w] | LC50 Corn Earworm [4] [% w] | LC50 Pea Aphid [5] [% w] |
| --- | --- | --- | --- | --- | --- |
| COC(=O)NN(C(=O)Cl)c1cccc2c1OC(C)(C)C2 [Compound 1, 2-(2-chlorocarbonyl)-2-(2,3-dihydro-2,2-dimethylbenzofuran-7-yl)hydrazinecarboxlic acid methyl ester] | > 0.02 | 0.016 | > 0.5 | 0.043 | 0.00008 |
| CCOC(=O)NN(C(=O)Cl)c1cccc2c1OC(C)(C)C2 [Compound 2, 2-(2-chlorocarbonyl)-2-(2,3-dihydro-2,2-dimethyl-benzofuran-7-yl)hydrazinecarboxylic acid ethyl ester] | > 0.2 | > 0.1 | > 0.5 | 0.1 | 0.0003 |
| COC(=O)NN(C(=O)Cl)c1ccc(C)c2c1OC(C)(C)C2 [Compound 4, 2-(2-chlorocarbonyl)-2-(2,3-dihydro-2,2,4-trimethylbenzofuran-7-yl)hydrazinecarboxylic acid methyl ester] | > 0.2 | 0.02 | > 0.5 | 0.033 | 0.0002 |
| COC(=O)NN(C(=O)Cl)c1cccc2c1OC(C)C2 (centres unmarked) [Compound 5, 2-(2-chlorocarbony)-2-(2,3-dihydro-2-methylbenzofuran-7-yl)-hydrazinecarboxylic acid methyl ester] | > 0.2 | 0.039 | > 0.5 | 0.057 | 0.0005 |
